According to PubChem BioAssay (NCI):
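Values below derive from 48-hour exposures of cells grown in 96-well plates, with endpoints linearly interpolated between the two concentrations bracketing the appropriate inhibition level. GI50 marks 50% less growth. TGI denotes the concentration required for complete inhibition of growth.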 Where a SMILES comes first, the peptide text is derived from it. Bridges are numbered along the chain shown (N, C = ends). Roman numbers before positions name the chains, in order. [ ]: non-standard residue; d: D form. The star is where a group is joined. Quinoxaline2carbonyl = O=C(c1cnc2ccccc2n1)*; NMeV = CN[CH](C(=O)O)C(C)C; NMeC = CN[CH](CS)C(=O)O

Columns and labels:
Test in all cases: NCI-60 cell line screen, 48 h
SK-MEL-5 melanoma = tested on: SK-MEL-5 melanoma
NCI-H460 lung = tested on: NCI-H460 lung
SW-620 colon = tested on: SW-620 colon
NCI-H23 lung = tested on: NCI-H23 lung
NCI-H522 lung = tested on: NCI-H522 lung
LOX IMVI melanoma = tested on: LOX IMVI melanoma
HOP-92 NSCLC = tested on: HOP-92 NSCLC
HCT-15 colon = tested on: HCT-15 colon
SF-295 CNS = tested on: SF-295 CNS
MDA-MB-231 breast = tested on: MDA-MB-231 breast

| Structure (SMILES) | GI50 (SK-MEL-5 melanoma) | TGI (SK-MEL-5 melanoma) | GI50 (NCI-H460 lung) | TGI (NCI-H460 lung) | GI50 (SW-620 colon) | TGI (SW-620 colon) | GI50 (NCI-H23 lung) | TGI (NCI-H23 lung) | GI50 (NCI-H522 lung) | TGI (NCI-H522 lung) | GI50 (LOX IMVI melanoma) | TGI (LOX IMVI melanoma) | GI50 (HOP-92 NSCLC) | TGI (HOP-92 NSCLC) | GI50 (HCT-15 colon) | TGI (HCT-15 colon) | GI50 (SF-295 CNS) | TGI (SF-295 CNS) | GI50 (MDA-MB-231 breast) | TGI (MDA-MB-231 breast) |
| --- | --- | --- | --- | --- | --- | --- | --- | --- | --- | --- | --- | --- | --- | --- | --- | --- | --- | --- | --- | --- |
| COc1ccc(/C=N/NC(=O)Cn2c(-c3ccc(S(C)(=O)=O)cc3)nc3cc(Cl)ccc32)cc1 | 964 nM | 8550 nM | 1510 nM | > 50000 nM | 1210 nM | > 50000 nM | 2390 nM | > 50000 nM | 291 nM | 1700 nM | 1400 nM | > 50000 nM | 1520 nM | > 50000 nM | 653 nM | > 50000 nM | 1470 nM | > 50000 nM | 2480 nM | > 50000 nM |
| CC(C)(C)c1ccc(C(=O)Nc2sc3c(c2C(N)=O)CCC(=O)C3)cc1 | 1530 nM | 2960 nM | 586 nM | 1940 nM | 187 nM | 1280 nM | 423 nM | 1860 nM | 318 nM | 1910 nM | 398 nM | 1510 nM | 1130 nM | 2960 nM | 408 nM | 2380 nM | 1210 nM | 2730 nM | 999 nM | 2630 nM |
| CC1NC(=O)C(NC(=O)c2cnc3ccccc3n2)COC(=O)C(C(C)C)N(C)C(=O)C2CSSCC(C(=O)N(C)C(C(C)C)C(=O)OCC(NC(=O)c3cnc4ccccc4n3)C(=O)NC(C)C(=O)N2C)N(C)C1=O (centres undefined) (I: Quinoxaline2carbonyl-SA[NMeC][NMeV] / II: Quinoxaline2carbonyl-SA[NMeC][NMeV]; ester I:1-II:C, I:C-II:1; disulfide I:3-II:3; configuration not given here) | – | – | – | 2230 nM | – | 2980 nM | – | < 13.3 nM | – | < 10 nM | – | 10200 nM | – | > 35700 nM | – | 365 nM | – | 16900 nM | – | 294 nM |
| CC(C)(C)CN1CCn2c(nc3c(N)nccc32)S1 | 14500 nM | 31100 nM | 4250 nM | 17300 nM | 4160 nM | 30100 nM | 5170 nM | 34000 nM | 13500 nM | 31600 nM | 9500 nM | 23500 nM | 96500 nM | > 100000 nM | 3920 nM | 26200 nM | 12000 nM | > 100000 nM | 19800 nM | > 100000 nM |
| COc1ccc2cc(-c3c(-c4ccncc4)nc(-c4ccc(S(C)=O)cc4)n3C)ccc2c1 (centres undefined) | 5580 nM | > 21200 nM | 24800 nM | > 25000 nM | > 25000 nM | > 25000 nM | > 25000 nM | > 25000 nM | > 18500 nM | > 25000 nM | > 23400 nM | > 25000 nM | 5670 nM | > 25000 nM | 9570 nM | > 25000 nM | > 22400 nM | > 25000 nM | > 25000 nM | > 25000 nM |
| N#CN1CC[C@H](C(=O)Nc2ncc(-c3ccncc3)s2)C1 | 92.5 nM | 5580 nM | < 20.8 nM | 14300 nM | 23 nM | 19500 nM | 26.9 nM | 3440 nM | < 14.9 nM | 49.9 nM | < 19 nM | > 100000 nM | 80.2 nM | 761 nM | < 21 nM | > 100000 nM | 226 nM | > 38900 nM | < 26.6 nM | > 50200 nM |
